Results on 37 molecules are retold here after US8921376B2, “Pyrrolopyridines useful as inhibitors of protein kinase” (Vertex Pharmaceuticals Incorporated, priority 2005, dated 2014).

Where only a bound is given, the exact number is not on record here.

Common to all, as to format: biochemical
The target in one assay is JAK2 (Homo sapiens, UniProt O60674). The assay is described as follows: JAK2 inhibition assay (as Example 3 with JAK-2 enzyme). The method in brief:
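In HEPES pH 7.4 buffer with 10 mM MgCl2, 1 mM DTT, 25 mM NaCl and 0.01% BSA, JAK2 enzyme phosphorylated poly(Glu)4Tyr (final 15 μM) using 33P-ATP (final 12 μM) for 20 min at room temperature (25 °C). Reactions stopped with TCA; incorporated 33P measured by scintillation after filtration.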

The target in a further assay is T1, JAK3 (Homo sapiens, UniProt P52333).
T1 sequence (P52333 1-1124): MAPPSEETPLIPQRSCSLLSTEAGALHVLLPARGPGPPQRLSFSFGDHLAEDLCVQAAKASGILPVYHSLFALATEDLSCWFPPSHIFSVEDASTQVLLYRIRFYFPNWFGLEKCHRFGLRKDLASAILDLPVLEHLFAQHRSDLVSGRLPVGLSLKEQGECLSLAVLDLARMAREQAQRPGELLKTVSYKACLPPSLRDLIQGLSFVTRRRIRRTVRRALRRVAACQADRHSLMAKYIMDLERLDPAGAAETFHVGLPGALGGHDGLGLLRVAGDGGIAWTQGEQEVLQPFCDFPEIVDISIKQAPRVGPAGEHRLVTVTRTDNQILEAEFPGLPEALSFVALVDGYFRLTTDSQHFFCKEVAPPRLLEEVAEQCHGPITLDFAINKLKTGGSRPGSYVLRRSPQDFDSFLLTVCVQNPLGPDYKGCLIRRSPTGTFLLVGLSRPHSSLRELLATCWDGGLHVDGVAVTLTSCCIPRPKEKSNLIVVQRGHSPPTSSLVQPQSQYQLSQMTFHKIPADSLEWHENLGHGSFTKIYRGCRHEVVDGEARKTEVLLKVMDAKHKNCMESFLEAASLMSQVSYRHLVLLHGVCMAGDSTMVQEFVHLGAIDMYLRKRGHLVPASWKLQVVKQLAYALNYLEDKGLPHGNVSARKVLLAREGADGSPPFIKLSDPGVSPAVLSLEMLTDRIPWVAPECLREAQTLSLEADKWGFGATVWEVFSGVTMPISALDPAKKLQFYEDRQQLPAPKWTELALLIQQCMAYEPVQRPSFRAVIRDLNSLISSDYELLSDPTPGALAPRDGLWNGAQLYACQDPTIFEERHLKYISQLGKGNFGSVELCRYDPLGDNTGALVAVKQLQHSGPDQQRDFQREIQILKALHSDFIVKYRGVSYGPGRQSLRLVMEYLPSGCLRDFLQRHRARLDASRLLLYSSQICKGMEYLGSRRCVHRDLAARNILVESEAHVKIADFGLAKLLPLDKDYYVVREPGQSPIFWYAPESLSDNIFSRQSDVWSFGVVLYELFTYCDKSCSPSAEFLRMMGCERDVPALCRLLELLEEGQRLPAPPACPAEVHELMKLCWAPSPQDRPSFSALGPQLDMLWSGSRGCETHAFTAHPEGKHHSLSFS
Nature of the assay: JAK3 inhibition assay (33P incorporation into poly(Glu)4Tyr). The method in brief: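 After TCA quench and filter harvest, scintillation counting of 33P measured phosphorylation of poly(Glu)4Tyr (1 μM) by 1 nM JAK3. The 20-min, 25° C. reaction contained 5 μM ATP (200 μCi/μmole) in pH 7.4 HEPES buffer with 10 mM MgCl2.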

Another assay concerns the target ROCK I (Homo sapiens, UniProt Q13464). Nature of the assay: ROCK-I inhibition assay (radioactive enzyme assay, MBP substrate). In a few lines:
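Human ROCK at 5 nM phosphorylated 27 μM myelin basic protein with 13 μM [γ-33P]ATP (final) in HEPES pH 7.5, MgCl2, NaCl, DTT and 1.5% DMSO. Reactions ran 2 h at room temperature before TCA quench and filter-plate scintillation counting. After background subtraction, data were fit to give Ki(app).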

[1] abbreviates: enzyme inhibition, Ki(app), Table 5.
The mark [2] stands for this setting: Table 6, enzyme inhibition data (Ki).

Sequence of ROCK I (Q13464 whole entry): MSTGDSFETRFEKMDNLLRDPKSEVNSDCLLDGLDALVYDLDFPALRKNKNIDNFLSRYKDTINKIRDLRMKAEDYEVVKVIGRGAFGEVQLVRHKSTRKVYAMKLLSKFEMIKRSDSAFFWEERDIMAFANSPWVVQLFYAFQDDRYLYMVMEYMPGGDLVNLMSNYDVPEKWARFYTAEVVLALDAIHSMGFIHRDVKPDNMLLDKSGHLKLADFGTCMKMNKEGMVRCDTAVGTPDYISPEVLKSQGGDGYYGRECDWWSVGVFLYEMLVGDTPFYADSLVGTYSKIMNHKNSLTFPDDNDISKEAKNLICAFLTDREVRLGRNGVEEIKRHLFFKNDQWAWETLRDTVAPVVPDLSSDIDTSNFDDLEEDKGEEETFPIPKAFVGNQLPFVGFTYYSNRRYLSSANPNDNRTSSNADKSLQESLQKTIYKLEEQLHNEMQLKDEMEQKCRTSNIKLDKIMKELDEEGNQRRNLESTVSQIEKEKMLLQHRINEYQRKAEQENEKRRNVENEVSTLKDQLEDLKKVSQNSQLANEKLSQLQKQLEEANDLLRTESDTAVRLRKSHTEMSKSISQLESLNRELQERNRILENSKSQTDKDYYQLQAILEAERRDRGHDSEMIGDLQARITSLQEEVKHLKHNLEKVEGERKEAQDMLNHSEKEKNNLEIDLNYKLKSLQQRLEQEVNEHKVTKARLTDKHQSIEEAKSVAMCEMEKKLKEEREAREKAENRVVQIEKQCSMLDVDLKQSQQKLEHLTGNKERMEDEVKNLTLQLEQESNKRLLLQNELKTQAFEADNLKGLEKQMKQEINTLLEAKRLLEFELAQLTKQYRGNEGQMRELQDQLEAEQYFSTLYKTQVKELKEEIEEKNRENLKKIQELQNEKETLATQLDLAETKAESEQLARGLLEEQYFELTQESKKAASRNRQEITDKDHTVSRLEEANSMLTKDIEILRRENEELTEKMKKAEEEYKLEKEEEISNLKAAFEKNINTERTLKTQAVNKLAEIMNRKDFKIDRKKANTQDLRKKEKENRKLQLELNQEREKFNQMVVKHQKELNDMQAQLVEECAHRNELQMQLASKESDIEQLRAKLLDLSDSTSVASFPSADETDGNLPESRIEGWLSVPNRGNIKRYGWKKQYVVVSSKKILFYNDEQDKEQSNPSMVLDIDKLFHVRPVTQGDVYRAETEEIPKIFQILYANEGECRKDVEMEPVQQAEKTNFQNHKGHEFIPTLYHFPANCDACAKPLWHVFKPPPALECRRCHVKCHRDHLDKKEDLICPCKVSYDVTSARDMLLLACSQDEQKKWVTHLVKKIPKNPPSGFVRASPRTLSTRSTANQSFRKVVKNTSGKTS
Sequence of JAK2 (O60674 whole entry): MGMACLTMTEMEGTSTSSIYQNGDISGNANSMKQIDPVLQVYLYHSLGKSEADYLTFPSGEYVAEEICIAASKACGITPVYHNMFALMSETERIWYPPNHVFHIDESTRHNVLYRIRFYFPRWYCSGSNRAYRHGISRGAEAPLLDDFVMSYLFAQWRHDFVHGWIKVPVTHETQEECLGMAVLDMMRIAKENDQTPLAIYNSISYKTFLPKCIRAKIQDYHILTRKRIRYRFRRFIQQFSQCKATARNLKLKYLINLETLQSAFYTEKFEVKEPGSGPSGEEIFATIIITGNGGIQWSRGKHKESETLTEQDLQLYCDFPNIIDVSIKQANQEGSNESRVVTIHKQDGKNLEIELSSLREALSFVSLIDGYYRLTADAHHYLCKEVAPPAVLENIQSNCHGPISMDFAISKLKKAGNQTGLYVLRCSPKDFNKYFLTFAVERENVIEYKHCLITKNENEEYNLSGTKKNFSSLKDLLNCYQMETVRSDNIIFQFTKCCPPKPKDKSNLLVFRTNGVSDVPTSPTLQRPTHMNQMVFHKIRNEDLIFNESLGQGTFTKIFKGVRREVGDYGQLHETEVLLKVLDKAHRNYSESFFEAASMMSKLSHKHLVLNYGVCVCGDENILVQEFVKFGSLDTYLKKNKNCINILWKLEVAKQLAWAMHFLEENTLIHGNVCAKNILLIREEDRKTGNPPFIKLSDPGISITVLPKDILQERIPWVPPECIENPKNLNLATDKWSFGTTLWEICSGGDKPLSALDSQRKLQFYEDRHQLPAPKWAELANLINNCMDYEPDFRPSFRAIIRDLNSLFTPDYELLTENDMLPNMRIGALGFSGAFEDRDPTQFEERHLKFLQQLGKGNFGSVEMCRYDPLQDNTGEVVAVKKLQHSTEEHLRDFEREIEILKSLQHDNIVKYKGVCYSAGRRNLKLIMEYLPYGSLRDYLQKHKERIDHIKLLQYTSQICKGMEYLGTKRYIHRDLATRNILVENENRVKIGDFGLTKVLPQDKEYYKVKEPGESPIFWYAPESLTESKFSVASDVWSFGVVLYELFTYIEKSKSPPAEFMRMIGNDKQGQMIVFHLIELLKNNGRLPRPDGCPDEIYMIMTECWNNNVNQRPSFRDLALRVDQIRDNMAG

For `CC(C)CNc1cccc(-c2c(Cl)cnc3[nH]ccc23)n1` [compound 78, 6-(5-Chloro-1H-pyrrolo[2,3-b]pyridin-4-yl)-N-isobutylpyridin-2-anine], the Ki on JAK2 (enzyme inhibition, Table 5) lay in the range of 0.5 to 5 µM; at JAK3 (enzyme inhibition, Table 5) it was 0.5 to 5 µM; at ROCK I (setting [1]), 0.5 to 5 µM.

Regarding `Cc1cc(C)c(-c2ccnc3[nH]ccc23)c(C)c1` [compound 242], the Ki is > 5 µM at JAK2 (setting [2]), > 5 µM at JAK3 (setting [2]) and > 4 µM on ROCK I (setting [2]).

Turning to `CCN(Cc1ccncc1)C(=O)c1cc(-c2c(Cl)cnc3[nH]ccc23)c[nH]1` [compound 353], the Ki at JAK2 (setting [2]) was < 0.5 µM; on JAK3 (setting [2]) it was < 0.5 µM; at ROCK I (setting [2]), 0.5 to 5 µM.

Turning to `CC(C)(C)OC(=O)N1CC=C(c2ccnc3[nH]ccc23)CC1` [compound 44], the Ki was < 0.5 µM at JAK2 (enzyme inhibition, Table 5); < 0.5 µM on JAK3 (enzyme inhibition, Table 5); < 0.5 µM at ROCK I (setting [1]).

For `COC(=O)N1CC[C@@H](Nc2c(Cl)cnc3[nH]ccc23)C1` [compound 170], the Ki on JAK2 (setting [2]) is < 0.5 µM; at JAK3 (setting [2]), < 0.5 µM; on ROCK I (setting [2]) it was 0.5 to 5 µM.

For the molecule `Clc1cccc(-c2ccnc3[nH]ccc23)c1Cl` [compound 224], the Ki at JAK2 (setting [2]) was 0.5 to 5 µM; at JAK3 (setting [2]), 0.5 to 5 µM; on ROCK I (setting [2]) it was < 0.5 µM.

Regarding `CCCOC(=O)N1CC[C@H](Nc2c(Cl)cnc3[nH]ccc23)C1` [compound 167], the Ki on JAK2 (setting [2]) was < 0.5 µM; on JAK3 (setting [2]), < 0.5 µM; at ROCK I (setting [2]) it was > 4 µM.

In the case of `O=C(c1csc(-c2ccnc3[nH]ccc23)n1)N(CCC(F)(F)F)CC1CC1` [compound 402], the Ki at JAK2 (setting [2]), at JAK3 (setting [2]) and at ROCK I (setting [2]) was < 0.5 µM in each case.

Consider `O=C(c1cc(-c2ccnc3[nH]ccc23)c[nH]1)N1CCCC1CO` (stereo not drawn) [compound 362], for which the Ki was < 0.5 µM on JAK2 (setting [2]), 0.5 to 5 µM on JAK3 (setting [2]) and 0.5 to 5 µM on ROCK I (setting [2]).

On to `CN(CCc1ccccn1)C(=O)c1cc(-c2ccnc3[nH]ccc23)c[nH]1` [compound 367], for which the Ki on JAK2 (setting [2]), at JAK3 (setting [2]) and on ROCK I (setting [2]) was < 0.5 µM each time.

Take `N#CCCN(Cc1cccnc1)C(=O)c1cc(-c2c(Cl)cnc3[nH]ccc23)c[nH]1` [compound 331]: the Ki is < 0.5 µM at JAK2 (setting [2]), < 0.5 µM at JAK3 (setting [2]) and 0.5 to 5 µM on ROCK I (setting [2]).

As to `O=C(CC(F)(F)F)N1CC[C@H](Nc2c(Cl)cnc3[nH]ccc23)C1` [compound 187], the results for the Ki on JAK2 (setting [2]), at JAK3 (setting [2]) and at ROCK I (setting [2]) were < 0.5 µM, < 0.5 µM and 0.5 to 5 µM, respectively.

For `O=C(c1cc(-c2c(Cl)cnc3[nH]ccc23)c[nH]1)N1CCC(O)C1` (stereo not drawn) [compound 350], the Ki was < 0.5 µM on JAK2 (setting [2]), < 0.5 µM at JAK3 (setting [2]) and > 4 µM on ROCK I (setting [2]).

As for `Cc1ccc(F)c(-c2ccnc3[nH]ccc23)c1Cl` [compound 244], the Ki at JAK2 (setting [2]) was > 5 µM; at JAK3 (setting [2]) it was 0.5 to 5 µM; on ROCK I (setting [2]) it was 0.5 to 5 µM.

Regarding `COCCN(CCOC)C(=O)c1ccc(-c2ccnc3[nH]ccc23)s1` [compound 324], the Ki at JAK2 (setting [2]), at JAK3 (setting [2]) and on ROCK I (setting [2]) was < 0.5 µM in each case.

On to `CC(=O)N1CCCN(c2cccc(-c3ccnc4[nH]ccc34)n2)CC1` [compound 18], for which the Ki on JAK2 (enzyme inhibition, Table 5) was < 0.5 µM; at JAK3 (enzyme inhibition, Table 5) it was 0.5 to 5 µM; at ROCK I (setting [1]), 0.5 to 5 µM.

For the molecule `N#CCc1cccc(-c2ccnc3[nH]ccc23)c1` [compound 63, [3-(1H-Pyrrolo[2,3-b]pyridin-4-yl)-phenyl]-acetonitrile], the Ki at JAK2 (enzyme inhibition, Table 5) is < 0.5 µM; at JAK3 (enzyme inhibition, Table 5), < 0.5 µM; on ROCK I (setting [1]), < 0.5 µM.

With `Cc1csc(-c2c(Cl)cnc3[nH]ccc23)c1` [compound 144], the Ki is < 0.5 µM at JAK2 (setting [2]), < 0.5 µM on JAK3 (setting [2]) and 0.5 to 5 µM at ROCK I (setting [2]).

Turning to `C#CCN(C)C(=O)c1ccc(-c2ccnc3[nH]ccc23)s1` [compound 323], the Ki on JAK2 (setting [2]), on JAK3 (setting [2]) and at ROCK I (setting [2]) was < 0.5 µM throughout.

Regarding `CCC(=O)N1CC[C@@H](Nc2c(Cl)cnc3[nH]ccc23)C1` [compound 176], the Ki on JAK2 (setting [2]) is < 0.5 µM; at JAK3 (setting [2]), < 0.5 µM; on ROCK I (setting [2]), 0.5 to 5 µM.

Take `Clc1cnc2[nH]ccc2c1Nc1cccc(-c2cnco2)c1` [compound 156]: the Ki at JAK2 (setting [2]) was < 0.5 µM; on JAK3 (setting [2]), < 0.5 µM; on ROCK I (setting [2]), > 4 µM.

For the molecule `CC1CCC(Nc2c(Cl)cnc3[nH]ccc23)CC1` (stereo not drawn) [compound 229], the Ki at JAK2 (setting [2]) is < 0.5 µM; on JAK3 (setting [2]), < 0.5 µM; on ROCK I (setting [2]), 0.5 to 5 µM.

For the molecule `CN(CC(F)(F)F)C(=O)c1cc(-c2c(Cl)cnc3[nH]ccc23)c[nH]1` [compound 360], the Ki on JAK2 (setting [2]) was < 0.5 µM; on JAK3 (setting [2]), < 0.5 µM; on ROCK I (setting [2]) it was 0.5 to 5 µM.

For the molecule `CN(CCC(O)c1ccccc1)c1cccc(-c2ccnc3[nH]ccc23)n1` (stereo not drawn) [compound 53], the Ki on JAK2 (enzyme inhibition, Table 5) was 0.5 to 5 µM; at JAK3 (enzyme inhibition, Table 5) it was 0.5 to 5 µM; at ROCK I (setting [1]), < 0.5 µM.

On to `CCCCN(CC#N)C(=O)c1ccc(-c2ccnc3[nH]ccc23)s1` [compound 317], for which the Ki at JAK2 (setting [2]), on JAK3 (setting [2]) and at ROCK I (setting [2]) was < 0.5 µM in each case.

Take `CC1CCCCN1C(=O)c1csc(-c2ccnc3[nH]ccc23)n1` (stereo not drawn) [compound 420]: the Ki on JAK2 (setting [2]), on JAK3 (setting [2]) and on ROCK I (setting [2]) was < 0.5 µM in each case.

For `CCNC(=O)c1cccc(-c2ccnc3[nH]ccc23)c1` [compound 255], the Ki on JAK2 (setting [2]), at JAK3 (setting [2]) and on ROCK I (setting [2]) was 0.5 to 5 µM throughout.

Take `Fc1cnc2[nH]ccc2c1-c1ccc(CN(CCC(F)(F)F)CC2CC2)o1` [compound 382]: the Ki on JAK2 (setting [2]) is < 0.5 µM; on JAK3 (setting [2]), < 0.5 µM; on ROCK I (setting [2]), 0.5 to 5 µM.

`O=C(c1cc(-c2c(Cl)cnc3[nH]ccc23)c[nH]1)N1CCCC1C(F)(F)F` (stereo not drawn) [compound 358]: the Ki is < 0.5 µM at JAK2 (setting [2]), < 0.5 µM on JAK3 (setting [2]) and 0.5 to 5 µM on ROCK I (setting [2]).

Take `Clc1cnc2[nH]ccc2c1N[C@@H]1CCC[C@H]1OCc1ccccc1` [compound 152]: the Ki on JAK2 (setting [2]), on JAK3 (setting [2]) and at ROCK I (setting [2]) was < 0.5 µM in each case.

Turning to `C1=C(c2ccnc3[nH]ccc23)CCNC1` [compound 45], the Ki at JAK2 (enzyme inhibition, Table 5) is 0.5 to 5 µM; on JAK3 (enzyme inhibition, Table 5) it was 0.5 to 5 µM; on ROCK I (setting [1]) it was < 0.5 µM.

As to `Cc1cccc(C)c1-c1ccnc2[nH]ccc12` [compound 217], the Ki at JAK2 (setting [2]) was > 5 µM; on JAK3 (setting [2]), > 5 µM; at ROCK I (setting [2]), > 4 µM.

Regarding `CN(Cc1cccnc1)C(=O)c1cc(-c2c(Cl)cnc3[nH]ccc23)c[nH]1` [compound 354], the Ki was < 0.5 µM on JAK2 (setting [2]), < 0.5 µM at JAK3 (setting [2]) and 0.5 to 5 µM at ROCK I (setting [2]).

Take `O=C(NCCC(F)(F)F)c1cc(-c2ccnc3[nH]ccc23)c[nH]1` [compound 293]: the Ki at JAK2 (setting [2]), on JAK3 (setting [2]) and on ROCK I (setting [2]) was < 0.5 µM in each case.

With `N#CCNC(=O)c1cc(-c2ccnc3[nH]ccc23)c[nH]1` [compound 295], the Ki on JAK2 (setting [2]), at JAK3 (setting [2]) and at ROCK I (setting [2]) was < 0.5 µM in each case.

Consider `N#CCN(Cc1ccccc1)C(=O)c1cc(-c2c(F)cnc3[nH]ccc23)c[nH]1` [compound 391], for which the Ki on JAK2 (setting [2]), at JAK3 (setting [2]) and on ROCK I (setting [2]) was < 0.5 µM each time.

As to `CCN(CC)C(=O)c1cc(-c2ccnc3[nH]ccc23)c[nH]1` [compound 262], the Ki on JAK2 (setting [2]), at JAK3 (setting [2]) and on ROCK I (setting [2]) was < 0.5 µM throughout.
